Data on eight compounds can be found in ChEMBL document CHEMBL1909046, “DrugMatrix in vitro pharmacology data”.

By IC50 is commonly meant the midpoint of a concentration-inhibition curve. Broadly, the Ki is the equilibrium dissociation constant of an inhibitor or competing ligand from its target.

The target in assay [1] is Delta-type opioid receptor (Homo sapiens, UniProt P41143). The format is cell membranes, HEK293, Membrane. The following applies: hek293. Further: in other assays of this panel Not Active means under 50% inhibition at 10 µM.
The target of the next assay is T1, Adenosine receptor A1 (Homo sapiens, UniProt P30542).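 Further: radioligand binding assay at the adenosine A1 receptor, with DPCPX serving as the labelled ligand; in other assays of this panel Not Active means under 50% inhibition at 10 µM.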
T1 sequence (P30542 whole entry): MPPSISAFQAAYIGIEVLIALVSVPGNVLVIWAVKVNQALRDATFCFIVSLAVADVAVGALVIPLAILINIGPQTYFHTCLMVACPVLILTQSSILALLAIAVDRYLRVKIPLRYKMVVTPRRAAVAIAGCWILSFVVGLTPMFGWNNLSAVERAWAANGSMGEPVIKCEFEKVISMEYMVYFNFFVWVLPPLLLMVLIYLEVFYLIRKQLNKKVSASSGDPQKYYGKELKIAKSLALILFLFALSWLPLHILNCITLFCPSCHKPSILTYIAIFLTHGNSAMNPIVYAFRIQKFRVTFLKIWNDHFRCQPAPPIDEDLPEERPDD
Type of assay: cell membranes, CHO, Membrane. The following applies: cho.

The target in assay [2] is T2, Cholecystokinin receptor type A (Homo sapiens, UniProt P32238). Further: in other assays of this panel Not Active means under 50% inhibition at 10 µM.
T2 sequence (P32238 whole entry): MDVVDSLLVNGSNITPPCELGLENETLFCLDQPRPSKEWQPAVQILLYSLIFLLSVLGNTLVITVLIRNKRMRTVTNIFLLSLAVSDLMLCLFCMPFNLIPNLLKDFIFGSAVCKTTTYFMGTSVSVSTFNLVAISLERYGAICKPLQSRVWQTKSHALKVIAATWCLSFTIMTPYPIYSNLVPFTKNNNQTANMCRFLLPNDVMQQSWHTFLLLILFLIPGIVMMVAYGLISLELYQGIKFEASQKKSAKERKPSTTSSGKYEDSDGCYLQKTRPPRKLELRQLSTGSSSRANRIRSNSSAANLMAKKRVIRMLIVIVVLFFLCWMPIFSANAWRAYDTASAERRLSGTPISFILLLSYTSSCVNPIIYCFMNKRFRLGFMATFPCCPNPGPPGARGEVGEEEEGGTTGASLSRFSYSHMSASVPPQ
Type of assay: cell membranes, Membrane. The following applies: 1321-n1.

Assay [3] concerns the target Receptor tyrosine-protein kinase erbB-2 (Homo sapiens, UniProt P04626). Description: biochemical. The format is cell-based, Insect cells. The following applies: insect cells.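 Further: inhibition of HER2 kinase enzyme activity, measured with Poly(Glu:Tyr) as the phosphorylation substrate; in other assays of this panel Not Active means under 50% inhibition at 10 µM.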
For assay [4], the target named is Tyrosine-protein kinase Fyn (Homo sapiens, UniProt P06241). Description: biochemical. Type of assay: cell-based, Insect cells.
The target of assay [5] is 5-hydroxytryptamine receptor 4 (Cavia porcellus, UniProt O70528). Type of assay: cell membranes, Dunkin-Hartley, Striatum, Membrane. Further: in other assays of this panel Not Active means under 50% inhibition at 10 µM.
Assay [6] addresses T3, Amine oxidase [flavin-containing] A (Homo sapiens, UniProt P21397).
T3 sequence (P21397 whole entry): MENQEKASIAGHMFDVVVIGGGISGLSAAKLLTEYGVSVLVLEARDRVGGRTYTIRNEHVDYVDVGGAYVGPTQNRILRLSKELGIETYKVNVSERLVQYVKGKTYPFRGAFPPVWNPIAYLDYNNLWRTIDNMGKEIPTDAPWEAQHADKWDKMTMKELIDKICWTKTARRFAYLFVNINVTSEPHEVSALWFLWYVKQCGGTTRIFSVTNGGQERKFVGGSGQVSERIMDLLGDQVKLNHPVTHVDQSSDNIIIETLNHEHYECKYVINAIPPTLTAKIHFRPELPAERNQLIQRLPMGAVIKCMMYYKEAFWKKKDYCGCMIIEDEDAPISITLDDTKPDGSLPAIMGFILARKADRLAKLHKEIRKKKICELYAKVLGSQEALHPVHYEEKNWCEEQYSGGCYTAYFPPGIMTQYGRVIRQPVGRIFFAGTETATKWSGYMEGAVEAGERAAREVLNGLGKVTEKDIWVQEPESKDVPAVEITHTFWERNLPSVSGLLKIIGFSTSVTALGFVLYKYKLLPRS
Description: DRUGMATRIX: Monoamine Oxidase MAO-A enzyme inhibition (substrate: Kynuramine). The following applies: bti-tn-5b1-4; Not Active = under 50% inhibition at 10 µM. Further details: species or system BTI-TN-5B1-4.

The target in assay [7] is Matrix metalloproteinase-9 (Homo sapiens, UniProt P14780). Type of assay: cell-based.
The nature of assay [8]: DRUGMATRIX: beta-Lactamase enzyme inhibition (substrate: Nitrocefin). Further details: species or system Bacillus cereus. The following applies: Not Active = under 50% inhibition at 10 µM.
Assay [9] deals with 5-hydroxytryptamine receptor 6 (Homo sapiens, UniProt P50406). The format is cell membranes, HeLa, Membrane.
Assay [10] addresses T4, 3-hydroxy-3-methylglutaryl-coenzyme A reductase (Homo sapiens, UniProt P04035).
T4 sequence (P04035 whole entry): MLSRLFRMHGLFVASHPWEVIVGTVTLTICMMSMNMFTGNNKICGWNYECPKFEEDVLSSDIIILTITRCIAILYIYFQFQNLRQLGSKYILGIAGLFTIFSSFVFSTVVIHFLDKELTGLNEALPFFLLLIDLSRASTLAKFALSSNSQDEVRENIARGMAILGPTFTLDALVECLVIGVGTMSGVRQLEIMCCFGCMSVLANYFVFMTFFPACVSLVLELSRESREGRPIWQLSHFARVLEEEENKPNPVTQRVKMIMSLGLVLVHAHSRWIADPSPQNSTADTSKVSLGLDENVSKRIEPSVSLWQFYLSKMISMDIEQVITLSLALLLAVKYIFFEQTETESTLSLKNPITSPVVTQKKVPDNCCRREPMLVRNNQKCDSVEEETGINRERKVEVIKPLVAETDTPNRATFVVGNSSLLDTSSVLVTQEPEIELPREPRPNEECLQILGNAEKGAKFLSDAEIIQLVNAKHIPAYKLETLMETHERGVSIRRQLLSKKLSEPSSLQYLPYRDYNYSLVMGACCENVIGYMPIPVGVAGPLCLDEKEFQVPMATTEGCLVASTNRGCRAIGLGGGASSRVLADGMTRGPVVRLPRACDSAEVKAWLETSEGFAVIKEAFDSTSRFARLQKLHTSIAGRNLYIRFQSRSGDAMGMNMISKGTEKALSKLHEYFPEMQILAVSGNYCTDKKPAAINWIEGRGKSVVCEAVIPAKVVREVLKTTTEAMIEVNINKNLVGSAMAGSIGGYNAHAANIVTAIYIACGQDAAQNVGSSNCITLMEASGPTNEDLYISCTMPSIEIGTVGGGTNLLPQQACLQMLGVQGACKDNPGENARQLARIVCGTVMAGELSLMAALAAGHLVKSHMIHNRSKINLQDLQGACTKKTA
Further details: species or system Escherichia coli.

A further assay deals with Mu-type opioid receptor (Homo sapiens, UniProt P35372). The assay is described as follows: DRUGMATRIX: Opiate mu (OP3, MOP) radioligand binding (ligand: [3H] Diprenorphine). The format is cell membranes, CHO-K1, Membrane. The following applies: cho-k1; Not Active = under 50% inhibition at 10 µM.
Sequence of Mu-type opioid receptor (P35372 whole entry): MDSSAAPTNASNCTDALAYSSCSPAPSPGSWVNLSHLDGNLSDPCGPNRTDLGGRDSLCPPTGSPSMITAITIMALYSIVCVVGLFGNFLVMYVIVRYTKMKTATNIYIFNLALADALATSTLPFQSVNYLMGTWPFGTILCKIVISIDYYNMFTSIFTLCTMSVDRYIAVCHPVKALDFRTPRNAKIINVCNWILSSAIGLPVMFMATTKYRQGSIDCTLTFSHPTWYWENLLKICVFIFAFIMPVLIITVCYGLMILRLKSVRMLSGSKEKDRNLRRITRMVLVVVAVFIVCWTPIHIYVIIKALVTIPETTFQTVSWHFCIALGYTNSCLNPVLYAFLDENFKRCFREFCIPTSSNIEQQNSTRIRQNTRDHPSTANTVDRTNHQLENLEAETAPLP

Sequence of Delta-type opioid receptor (P41143 whole entry): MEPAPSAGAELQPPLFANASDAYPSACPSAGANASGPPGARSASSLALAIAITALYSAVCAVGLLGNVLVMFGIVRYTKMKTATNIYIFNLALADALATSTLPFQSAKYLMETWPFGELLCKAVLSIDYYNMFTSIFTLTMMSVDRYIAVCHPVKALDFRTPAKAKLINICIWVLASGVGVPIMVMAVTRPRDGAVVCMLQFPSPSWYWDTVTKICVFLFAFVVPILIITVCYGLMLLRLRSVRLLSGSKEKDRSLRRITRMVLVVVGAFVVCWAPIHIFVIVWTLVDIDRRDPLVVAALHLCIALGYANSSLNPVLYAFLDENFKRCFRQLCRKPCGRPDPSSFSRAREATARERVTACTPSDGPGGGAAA
Sequence of 5-hydroxytryptamine receptor 4 (O70528 whole entry): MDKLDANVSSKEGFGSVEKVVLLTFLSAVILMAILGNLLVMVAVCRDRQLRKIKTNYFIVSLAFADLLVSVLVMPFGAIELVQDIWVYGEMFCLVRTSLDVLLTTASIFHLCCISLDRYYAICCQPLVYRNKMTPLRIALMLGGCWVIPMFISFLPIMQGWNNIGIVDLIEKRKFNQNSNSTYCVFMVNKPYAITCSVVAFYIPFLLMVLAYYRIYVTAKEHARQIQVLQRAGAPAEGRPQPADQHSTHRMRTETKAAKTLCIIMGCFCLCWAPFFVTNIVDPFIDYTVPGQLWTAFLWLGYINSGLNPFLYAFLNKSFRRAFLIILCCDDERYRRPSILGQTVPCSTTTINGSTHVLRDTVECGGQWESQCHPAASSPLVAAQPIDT
Sequence of Tyrosine-protein kinase Fyn (P06241 whole entry): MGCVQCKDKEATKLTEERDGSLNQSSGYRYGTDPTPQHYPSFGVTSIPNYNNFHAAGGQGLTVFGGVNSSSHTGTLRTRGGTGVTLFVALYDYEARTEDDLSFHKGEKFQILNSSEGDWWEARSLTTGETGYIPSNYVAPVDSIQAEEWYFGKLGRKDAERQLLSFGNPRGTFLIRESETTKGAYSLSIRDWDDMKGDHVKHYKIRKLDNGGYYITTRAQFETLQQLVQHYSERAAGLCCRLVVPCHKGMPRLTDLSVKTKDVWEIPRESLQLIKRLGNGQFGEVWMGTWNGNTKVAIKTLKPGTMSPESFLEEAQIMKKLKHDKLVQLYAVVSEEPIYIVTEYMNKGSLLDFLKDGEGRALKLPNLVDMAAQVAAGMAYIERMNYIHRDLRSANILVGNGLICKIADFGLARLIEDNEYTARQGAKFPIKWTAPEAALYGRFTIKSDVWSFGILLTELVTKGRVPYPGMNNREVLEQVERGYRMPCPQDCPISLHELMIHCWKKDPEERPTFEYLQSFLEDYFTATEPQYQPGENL
Sequence of 5-hydroxytryptamine receptor 6 (P50406 whole entry): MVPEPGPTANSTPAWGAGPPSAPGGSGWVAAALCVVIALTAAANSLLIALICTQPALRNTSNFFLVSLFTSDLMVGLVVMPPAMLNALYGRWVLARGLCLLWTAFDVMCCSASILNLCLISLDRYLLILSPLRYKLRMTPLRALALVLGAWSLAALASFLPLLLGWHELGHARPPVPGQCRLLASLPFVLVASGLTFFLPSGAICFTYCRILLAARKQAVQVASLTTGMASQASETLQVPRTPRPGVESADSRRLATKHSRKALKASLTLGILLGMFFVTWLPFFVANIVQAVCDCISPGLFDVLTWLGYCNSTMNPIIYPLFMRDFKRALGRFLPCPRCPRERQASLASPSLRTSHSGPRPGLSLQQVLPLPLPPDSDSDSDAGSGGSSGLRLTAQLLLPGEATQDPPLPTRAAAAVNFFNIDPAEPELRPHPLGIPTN
Sequence of Matrix metalloproteinase-9 (P14780 whole entry): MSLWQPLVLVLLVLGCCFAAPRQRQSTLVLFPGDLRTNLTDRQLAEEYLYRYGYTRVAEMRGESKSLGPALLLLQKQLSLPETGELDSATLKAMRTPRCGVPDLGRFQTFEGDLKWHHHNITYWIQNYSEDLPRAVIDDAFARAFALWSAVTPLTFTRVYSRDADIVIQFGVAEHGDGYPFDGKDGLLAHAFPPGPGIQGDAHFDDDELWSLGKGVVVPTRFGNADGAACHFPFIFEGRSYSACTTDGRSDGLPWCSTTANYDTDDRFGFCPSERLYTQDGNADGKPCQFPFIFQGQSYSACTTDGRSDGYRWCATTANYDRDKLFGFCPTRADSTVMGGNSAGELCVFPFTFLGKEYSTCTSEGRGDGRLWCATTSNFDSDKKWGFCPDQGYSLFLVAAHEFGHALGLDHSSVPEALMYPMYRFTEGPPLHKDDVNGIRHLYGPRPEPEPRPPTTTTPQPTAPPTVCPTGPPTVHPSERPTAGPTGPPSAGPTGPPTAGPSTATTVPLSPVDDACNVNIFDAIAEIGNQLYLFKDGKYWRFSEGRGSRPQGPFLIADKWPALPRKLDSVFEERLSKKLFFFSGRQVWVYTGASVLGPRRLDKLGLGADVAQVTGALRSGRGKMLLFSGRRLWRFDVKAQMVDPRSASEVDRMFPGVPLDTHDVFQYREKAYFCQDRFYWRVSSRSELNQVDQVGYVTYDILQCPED

With `CC(C)(C)NC(=O)[C@@H]1CN(Cc2cccnc2)CCN1C[C@@H](O)C[C@@H](Cc1ccccc1)C(=O)N[C@H]1c2ccccc2C[C@H]1O.O`, the 50% inhibitory concentration (IC50) result (in assay [1]; against Adenosine receptor A1; in assay [2]; in assay [3]; in [4] (insect cells); in [5]) was “Not Active” throughout. In addition, the IC50 result (in assay [6]; in assay [7]; in [8]; in assay [9] (hela); in assay [10]; on Mu-type opioid receptor) was “Not Active” each time. The inhibition constant Ki entry in assay [8] is given as “Not Active”.
As to `CN(C)CCCN1c2ccccc2CCc2ccc(Cl)cc21` [CLOMIPRAMINE], the IC50 entry (in assay [1]; at Adenosine receptor A1; in [2]; in assay [3]; in assay [4] (insect cells); in [5]) was “Not Active” throughout. The half-inhibitory concentration (IC50) result was “Not Active” in assay [6]; “Not Active” in assay [7]; 245 nM in assay [9] (read-out: IC50); “Not Active” in assay [10]; “Not Active” at Mu-type opioid receptor. Further, the inhibition constant (Ki) in [9] (read-out: Ki) came to 114 nM.
Consider `CN1CCN2c3ccccc3Cc3ccccc3C2C1` (stereo not drawn) [MIANSERIN], for which the IC50 entry (in assay [1]; on Adenosine receptor A1; in assay [2]; in assay [3]; in [4] (insect cells); in assay [5]) was “Not Active” in each case. Besides, the half-maximal inhibitory concentration (IC50) result (in assay [6]; in [7]; in assay [10]; on Mu-type opioid receptor) was “Not Active” in each case.
Regarding `CC(C)(O)c1ccccc1CC[C@@H](SCC1(CC(=O)O)CC1)c1cccc(/C=C/c2ccc3ccc(Cl)cc3n2)c1` [MONTELUKAST], the IC50 result at Adenosine receptor A1 is “Not Active”; in assay [2], “Not Active”; in [3], “Not Active”; in [4] (read-out: IC50) it was 4.7 µM; in [5], “Not Active”; in assay [6], “Not Active”. Moreover, the IC50 entry (in [7]; in [9] (hela); in [10]; at Mu-type opioid receptor) was “Not Active” in each case.
On to `CSc1ccc2c(c1)N(CCC1CCCCN1C)c1ccccc1S2` (stereo not drawn) [THIORIDAZINE], for which the IC50 result in assay [1] is “Not Active”; against Adenosine receptor A1 it was “Not Active”; in assay [2], “Not Active”; in assay [3] it was “Not Active”; in assay [4] (read-out: IC50), 5.05 µM; in assay [5], “Not Active”. The IC50 entry in assay [6] was “Not Active”; in [7], “Not Active”; in [9] (read-out: IC50), 71 nM; in [10], “Not Active”; on Mu-type opioid receptor, “Not Active”. The inhibition constant Ki in assay [9] (read-out: Ki) came out at 33 nM.
As for `COc1ccc(C(CN(C)C)C2(O)CCCCC2)cc1` (stereo not drawn) [VENLAFAXINE], the 50% inhibitory concentration (IC50) entry (in assay [1]; on Adenosine receptor A1; in assay [2]; in assay [3]; in assay [4] (insect cells); in assay [5]) was “Not Active” throughout. Moreover, the IC50 result in assay [6], in assay [7], in [8], in assay [9] (hela) and in [10] was “Not Active” in each case. Further, the Ki entry in assay [8] is “Not Active”.
With `COC(=O)[C@@H]1[C@H]2C[C@H]3c4[nH]c5ccccc5c4CCN3C[C@@H]2CC[C@@H]1O` [YOHIMBINE], the 50% inhibitory concentration (IC50) entry (in [1]; on Adenosine receptor A1; in assay [2]; in assay [3]; in [4] (insect cells); in assay [5]) was “Not Active” throughout. Also, the 50% inhibitory concentration (IC50) entry (in assay [6]; in assay [7]; in [8]; in assay [10]; at Mu-type opioid receptor) was “Not Active” throughout. Also, the inhibition constant (Ki) result in [8] was “Not Active”.
On to IVERMECTIN, for which the IC50 entry (in [1]; against Adenosine receptor A1; in assay [2]; in assay [3]; in assay [4] (insect cells); in assay [5]) was “Not Active” throughout. Also, the IC50 result in assay [6], in assay [7], in assay [8], in [9] (hela) and in [10] was “Not Active” throughout. The inhibitory constant (Ki) entry (in assay [1]; at Adenosine receptor A1; in assay [2]; in [3]; in assay [4] (insect cells); in assay [5]) was “Not Active” in each case. Further, the inhibitory constant (Ki) result in [6], in [7], in [8], in assay [9] (hela) and in assay [10] was “Not Active” in each case.
